One assay concerns MDA-MB-436 cells. The assay can be described thus: Assay on inhibitory activity for MDA-MB-436 cell proliferation (CCK-8). Type of assay: cell-based. Particulars: 168 h incubation, CCK-8, absorbance at 450 nm. The protocol: 1.1 Assay on inhibitory activity for MDA-MB-436 cell proliferation MDA-MB-436 cells in a good growth state were collected into a centrifuge tube, adjusted to a cell density of 2×10^4 cells/mL using a complete medium (DMEM high glucose+[…]+1× insulin-transferrin-selenium (JTS-G)+16 μg/mL reduced glutathione), and seeded in a 96-well plate (100 μL/well), and the plate was incubated overnight in a cell incubator Compounds were added using a pipettor, such that the final concentrations of the compounds were 400 nM-0.02 nM. The wells were set in duplicate, and a control well was set. After 168 h of incubation in the cell incubator, the assay reagent CCK-8 (manufacturer: Dojindo Laboratories, Beijing; 10 μL/well) was added. After 1.5 h of incubation in the cell incubator, the absorbance was measured at 450 nm on a PerkinElmer Envision microplate reader.

The target in assay [1] is T1, PARP1 (Homo sapiens, UniProt P09874).
T1 construct: purchased BPS 80551
Briefly: Assay on PARP1 protein activity (chemiluminescence assay kit). It is filed as biochemical. Particulars: PARP1 enzyme, 1 h room temperature.

For assay [2], the target named is T1, PARP1. The assay can be described thus: PARP1-Tracer activity assay (FP method). Type of assay: binding. As to the method:
(§1) The enzyme inhibition activity of the compounds against PARP1/2-Tracer was tested using the FP method. First, 100 nL of inhibitors with a final concentration of 1% DMSO were transferred to a 384-well reaction plate (Corning 4514) using Echo655. Then, 5 μL of PARP1/2 (BPS, Cat #80501/80502) enzyme solution was added to each well, followed by centrifugation at 1000 RPM for 1 min at room temperature, and the reaction was allowed to proceed for 10 min. Subsequently, 5 μL of Tracer (ICE, Cat #001315-009) solution was added to each well, followed by centrifugation at 1000 RPM for 1 min at room temperature, and the reaction was allowed to proceed for 60 min. PARP1/2 and Tracer were prepared in a buffer containing 50 mM Tris (pH 8.0), 10 mM MgCl2, 150 mM NaCl, and 0.001% Triox-100, with final concentrations of 5/10 nM and 2.5 nM, respectively. Finally, the FP signal was read using BMG (PHERAstar FSX), and the IC50 values and nonlinear regression curve fitting were obtained using GraphPad Prism software.

For another assay, the target named is T2, PARP2 (Homo sapiens, UniProt Q9UGN5).
T2 construct: purchased BPS 80502
The assay can be described thus: PARP2-Tracer activity assay (FP method). It is filed as binding. The protocol: as §1

T1 sequence (P09874 whole entry): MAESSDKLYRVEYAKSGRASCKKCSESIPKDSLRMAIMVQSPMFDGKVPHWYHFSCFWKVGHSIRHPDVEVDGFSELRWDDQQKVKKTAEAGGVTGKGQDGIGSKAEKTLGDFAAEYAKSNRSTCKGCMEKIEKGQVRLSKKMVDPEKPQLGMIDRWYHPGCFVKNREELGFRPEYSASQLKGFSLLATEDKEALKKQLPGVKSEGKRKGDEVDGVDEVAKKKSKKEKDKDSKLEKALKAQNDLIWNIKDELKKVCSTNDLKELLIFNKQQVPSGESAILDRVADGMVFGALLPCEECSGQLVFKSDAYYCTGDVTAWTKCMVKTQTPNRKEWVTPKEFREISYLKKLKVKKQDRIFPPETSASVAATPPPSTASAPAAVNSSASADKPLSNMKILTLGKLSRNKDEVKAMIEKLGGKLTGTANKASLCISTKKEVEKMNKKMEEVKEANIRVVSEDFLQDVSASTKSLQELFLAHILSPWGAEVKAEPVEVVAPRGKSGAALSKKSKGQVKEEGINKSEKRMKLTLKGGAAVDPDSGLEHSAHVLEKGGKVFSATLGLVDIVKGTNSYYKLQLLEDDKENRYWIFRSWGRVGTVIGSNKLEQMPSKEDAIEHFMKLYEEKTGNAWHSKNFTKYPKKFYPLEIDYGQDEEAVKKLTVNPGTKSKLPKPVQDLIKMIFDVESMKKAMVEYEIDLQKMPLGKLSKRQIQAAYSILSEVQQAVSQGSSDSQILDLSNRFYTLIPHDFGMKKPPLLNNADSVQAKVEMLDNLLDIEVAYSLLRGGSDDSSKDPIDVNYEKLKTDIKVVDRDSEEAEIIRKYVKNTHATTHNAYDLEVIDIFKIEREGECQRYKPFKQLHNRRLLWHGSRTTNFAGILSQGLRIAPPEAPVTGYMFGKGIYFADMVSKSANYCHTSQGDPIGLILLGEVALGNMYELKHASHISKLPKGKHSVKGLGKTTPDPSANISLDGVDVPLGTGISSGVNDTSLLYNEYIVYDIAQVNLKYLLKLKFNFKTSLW
T2 sequence (Q9UGN5 whole entry): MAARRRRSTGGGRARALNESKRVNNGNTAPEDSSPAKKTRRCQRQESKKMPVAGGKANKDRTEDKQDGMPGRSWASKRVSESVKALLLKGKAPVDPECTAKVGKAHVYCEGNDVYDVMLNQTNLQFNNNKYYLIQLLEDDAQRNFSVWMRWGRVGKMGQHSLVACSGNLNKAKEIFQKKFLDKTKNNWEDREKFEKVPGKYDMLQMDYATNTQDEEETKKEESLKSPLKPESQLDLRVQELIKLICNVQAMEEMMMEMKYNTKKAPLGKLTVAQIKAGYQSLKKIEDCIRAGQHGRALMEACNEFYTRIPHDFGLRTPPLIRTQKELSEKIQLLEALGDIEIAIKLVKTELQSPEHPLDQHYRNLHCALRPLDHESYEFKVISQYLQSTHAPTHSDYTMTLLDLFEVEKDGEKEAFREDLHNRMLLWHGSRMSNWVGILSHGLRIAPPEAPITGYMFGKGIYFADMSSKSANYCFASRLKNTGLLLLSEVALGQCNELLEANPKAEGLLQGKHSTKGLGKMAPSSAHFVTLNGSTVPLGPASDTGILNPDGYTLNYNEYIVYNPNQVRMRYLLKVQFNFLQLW

As for `CNC(=O)n1cc2c(n1)CN(C1CN(Cc3ccc4cc(C(F)(F)F)c(=O)[nH]c4c3)[C@@H]1C)C2` (single isomer, unassigned) [Compound 35], the half-inhibitory concentration (IC50) in the assay on MDA-MB-436 cells is at most 50 nM. For `CNC(=O)n1cc2c(n1)CN(C1CN(Cc3ccc4cc(C(F)(F)F)c(=O)[nH]c4c3)[C@H]1C)C2` (single isomer, unassigned) [Compound 36], the IC50 in the assay with MDA-MB-436 cells (Homo sapiens, MDA-MB-436) was at most 50 nM; on PARP1 [1], at most 10 nM. For `CNC(=O)n1cc2c(n1)CN(C1CN(Cc3ccc4cc(C5CC5)c(=O)[nH]c4c3)[C@@H]1C)C2` (single isomer, unassigned) [Compound 40], the IC50 with MDA-MB-436 cells is at most 50 nM. Regarding `CCc1cc2ccc(CN3CC(N4Cc5cn(C(=O)NC)nc5C4)C3)cc2[nH]c1=O` [Compound 1], the IC50 in the assay on MDA-MB-436 cells (Homo sapiens, MDA-MB-436) was at most 50 nM. Regarding `CNC(=O)n1cc2c(n1)CN(C1CN(Cc3ccc4cc(C5CC5)c(=O)[nH]c4c3)C1)C2` [Compound 2], the IC50 against PARP1 [1] was at most 1 nM. As for `CCc1cc2ccc(CN3CC(N4Cc5cn(C(=O)NC6CC6)nc5C4)C3)cc2[nH]c1=O` [Compound 4], the IC50 with MDA-MB-436 cells (Homo sapiens, MDA-MB-436) is at most 50 nM. Take `CCc1cc2ncc(CN3CC(N4Cc5cn(C(=O)NC6CC6)nc5C4)C3)cc2[nH]c1=O` [Compound 5]: in the assay with MDA-MB-436 cells (Homo sapiens, MDA-MB-436), the half-inhibitory concentration (IC50) is at most 50 nM. Still for that read-out and setting: the value for `CCc1cc2ncc(CN3CC(N4Cc5nc(C(=O)NC)sc5C4)C3)cc2[nH]c1=O` [Compound 7] was at most 50 nM. `CCc1cc2ccc(CN3CC(N4Cc5cn(C(=O)NC(C)C)nc5C4)C3)cc2[nH]c1=O` [Compound 9] had a concentration for half-maximal inhibition (IC50) with MDA-MB-436 cells (Homo sapiens, MDA-MB-436) of at most 50 nM. On the same count and under the same terms, the value for `CCc1cc2ncc(CN3CC(N4Cc5cn(C(=O)NC)nc5C4)C3)cc2[nH]c1=O` [Compound 10] was at most 50 nM. Same read-out and setting: then `O=C(NC1CC1)n1cc2c(n1)CN(C1CN(Cc3ccc4cc(C5CC5)c(=O)[nH]c4c3)C1)C2` [Compound 11], with at most 50 nM; and `CCNC(=O)n1cc2c(n1)CN(C1CN(Cc3ccc4cc(CC)c(=O)[nH]c4c3)C1)C2` [Compound 13], with at most 50 nM. On the same count and under the same terms, the value for `[2H]C([2H])([2H])NC(=O)n1cc2c(n1)CN(C1CN(Cc3ccc4cc(CC)c(=O)[nH]c4c3)C1)C2` [Compound 14] was at most 50 nM; that for `CNC(=O)n1cc2c(n1)CN(C1CN(Cc3ccc4c5c(c(=O)[nH]c4c3)CCC5)C1)C2` [Compound 15] was at most 50 nM; that for `CCc1cc2c(F)cc(CN3CC(N4Cc5cn(C(=O)NC)nc5C4)C3)cc2[nH]c1=O` [Compound 16] was at most 50 nM.

As for `CNC(=O)n1cc2c(n1)CN(C1CN(Cc3ccc4cc(C(F)(F)F)c(=O)[nH]c4c3)C1)C2` [Compound 24], the IC50 on PARP1 [1] was at most 1 nM; against PARP1 [2], 2.48 nM; against PARP2 it was above 500 nM. With `CCc1cc2ccc(CN3C[C@@H](N4Cc5cn(C(=O)NC)nc5C4)[C@@H]3C)cc2[nH]c1=O` [Compound 39], the IC50 in the assay on MDA-MB-436 cells (Homo sapiens, MDA-MB-436) is at most 50 nM.

For the compound `CNC(=O)n1cc2c(n1)CN([C@@H]1CN(Cc3ccc4cc(C5CC5)c(=O)[nH]c4c3)[C@H]1C)C2` [Compound 43], in the assay on MDA-MB-436 cells (Homo sapiens, MDA-MB-436), the half-inhibitory concentration (IC50) was at most 50 nM.

With `CCc1nc2ccc(CN3C[C@H](N4Cc5cn(C(=O)NC)nc5C4)[C@@H]3C)cc2[nH]c1=O` [Compound 45], the IC50 was at most 1 nM against PARP1 [1], 2.52 nM at PARP1 [2] and above 500 nM against PARP2. As for `CCc1cc2ncc(CN3C[C@H](N4Cc5cn(C(=O)NC)nc5C4)[C@@H]3C)cc2[nH]c1=O` [Compound 47], the concentration for half-maximal inhibition (IC50) in the assay on MDA-MB-436 cells was at most 50 nM.

By IC50 is commonly meant the point on the concentration scale where inhibition reaches its midpoint.
